Reference: article PMC4558628 (International Journal of Clinical Pharmacology and …, 2014)
Where “and” joins values, the source holds several entries; their conditions need not be identical. Equal entries are not always repeated. Where two headings read alike, the source gives them in different places.

Legend:
[1] = set-up: method as in PMID 21189429, PMID 6643696; conditions: under fed conditions; cited from earlier work
[2] = Study 1 safety: treatment-emergent adverse events; conditions: drug administered alone; n = 14
Description: (§2) For each study, the participants were enrolled at different individual study centers in the US. Study 1 (rifampin study, NCT01395927) was a single-center, open-label, fixed-sequence study to evaluate the effects of steady-state rifampin on the single-dose PK of canagliflozin. The study consisted of a screening period of 20 days (from day –21 to ‒2), a 14-day open-label period (from day –1 to 13), followed by an end-of-study period (5 – 7 days) consisting of follow-up assessments. Participants received canagliflozin 300 mg (tablet) q.d. on day 1 and rifampin 600 mg q.d. (as two 300 mg capsules) on days 4 – 9. On day 10, canagliflozin (300 mg) plus rifampin (600 mg) was administered, followed by rifampin alone (600 mg) administration on days 11 – 12. The study drugs were administered under a fasted state.
(§3) Safety and tolerability were monitored throughout all three studies by evaluation of the incidence and the type of treatment-emergent adverse events (TEAEs), and change from baseline in: clinical laboratory tests (including hematology, serum chemistry, urinalysis, and urine uric acid analysis (study 2 only)), physical examination of all body systems except genitalia and breast (by a study physician), body weight, height, and BMI, vital signs (including systolic and diastolic blood pressure, heart rate, and body temperature), and 12-lead electrocardiographys (ECGs) (including cardiac rhythm, waveform morphology, and interval duration).
(§4) Results of the clinical laboratory parameters and vital signs were summarized using descriptive statistics.

[3] = Study 1: effect of steady-state rifampin on single-dose pharmacokinetics of canagliflozin, M7 and M5; conditions: day 10 (with canagliflozin, fasted) vs day 9 (alone, fed)
Description: as §2
(§5) Study 1: Venous blood (4 mL each) samples for the determination of canagliflozin, M7, and M5 plasma concentrations were collected pre-dose, and up to 72 hours post-dose (at 0.5, 1, 1.5, 2, 3, 4, 6, 8, 10, 12, 16, 24, 48, and 72 hours) on days 1 and 10. Urine samples for the determination of canagliflozin, M7, and M5 in urine were collected over the intervals of 0 – 4 hours, 4 – 12 hours, 12 – 24 hours, 24 – 48 hours, and 48 – 72 hours on days 1 and 10. Venous blood samples (2 mL each) for the determination of rifampin plasma concentrations were collected 2 hours after rifampin administration on days 9 and 10.
(§6) Blood samples for canagliflozin, M7 and M5, rifampin and probenecid were centrifuged (10 minutes at 1,300 rpm), and the obtained plasma was stored at or below –20 °C. […] Urine samples were collected in polyethylene containers for the PK evaluation of canagliflozin, M7, and M5. Two aliquots (3 mL in study 1 and 2 mL in study 2) of urine sample were transferred into polyethylene tubes and were stored at or below –20 °C.
(§7) The EDTA plasma samples were analyzed to determine the concentrations of canagliflozin with a validated [29, 30] liquid chromatography coupled to tandem mass spectrometry/mass spectrometry (LC-MS/MS) method (Frontage, Shanghai, China). A ^13C6 analogue of canagliflozin was used as internal standard (IS). Briefly, the sample was processed using a liquid-liquid extraction with tert-butyl methyl ether. The LC phase used a 5 cm × 4.6 mm column packed with XBridge C18 (Waters, Milford, MA, USA) with a mobile phase of ammonium acetate 0.01M (30%) and methanol (70%), and a flow rate of 1.2 mL/min. Quantification was achieved by MS/MS detection with an API4000, equipped with TurboIonSpray (TIS) interface (AB Sciex, Framingham, MA, USA), in the positive ion multiple reaction monitoring (MRM) mode. Canagliflozin and IS were monitored at mass transitions m/z 462.1 → 267.0 and m/z 468.1 → 273.0, respectively. The quantitation range was 5.0 – 10,000 ng/mL.
(§8) Plasma (validated) and urine (qualified) concentrations of M7 and M5 were also determined using ^13C6-canagliflozin as IS at Frontage Laboratories (Shanghai) Co., Ltd. Samples underwent protein precipitation, with acetonitrile. The LC-MS/MS quantitation was done with the same equipment as for canagliflozin. The LC phase used a 5 cm × 4.6 mm column packed with XBridge C18 with a mobile phase of ammonium acetate 0.01M (pH 4) and methanol at ratio 40/60 (v/v) at a flow rate of 1.2 mL/min. After 3.5 minutes, the composition was changed to 98% methanol for 1 minute to flush the column. Using positive ion MRM on an API4000, equipped with TIS, both metabolites were measured at mass transition m/z 638.2 → 427. The quantitation range was 5.0 – 10,000 ng/mL for both metabolites in plasma, and 100 – 100,000 ng/mL in urine.
(§9) Pharmacokinetic analyses of plasma and urine concentrations was done by non-compartmental method using validated WinNonlin® software Version 5.2.1 (Pharsight Corporation, Mountain View, CA, USA).

[4] = Study 2: effect of multiple-dose probenecid on steady-state pharmacokinetics of canagliflozin, M7 and M5; format: in vivo, human; conditions: for trough plasma concentration, mean (SD): canagliflozin 300 mg q.d.; for % Ae (dose): cumulative amount excreted into the urine: corrected for molecular weight when necessary; for tmax.ss: median (range)
Description: (§1) The study consisted of a 19-day screening period (from day –21 to –3), a 20 day open-label period (from day –2 to 18), followed by an end-of-study period (7 – 10 days). […] Participants received study drugs under fasted state on days 14 and 17. On all other study days, participants received a standardized meal 1 hour after the study drug administration. Diet was standardized in order to stabilize uric acid levels, and participants were advised not to consume highly purine-enriched foods.

[5] = Study 2 safety: treatment-emergent adverse events; format: in vivo, human
Description: as §1

[6] = Study 3 safety: treatment-emergent adverse events; format: in vivo, human
Description: (§10) The study consisted of a 3-week screening period (from day –22 to –2), an 11 day open-label period (from day –1 to 10), followed by an end-of-study period consisting of 2 follow-up assessments occurring from 7 to 10 days and again from 14 to 18 days after the last dose of the study drug administration. Canagliflozin 300 mg (tablet) q.d. was administered on days 1 through 8 under fasted state.
as §3

[7] = Safety and tolerability across the three studies; format: in vivo, human
Description: as §3, §4

[8] = in vivo
Description: as §2, §5, §6, §7, §8, §9

[9] = human, in vivo
Description: as §10
Study 3: Venous blood (4 mL each) samples for the determination of canagliflozin plasma concentration were collected at pre-dose on days 2, 3, 4, 5, and 6, and at pre-dose and up to 24 hours post-dose (at 0.5, 1, 1.5, 2, 3, 4, 5, 6, 10, 12, 16, and 24 hours) on days 7 and 8.
as §6, §7
Pharmacokinetic analyses of plasma and urine concentrations was done by non-compartmental method using validated WinNonlin® software Version 5.2.1 (Pharsight Corporation, Mountain View, CA, USA). […] The assessed pharmacokinetic parameters of canagliflozin, M7, and M5 in study 2, and of canagliflozin in study 3 were: Cmax during a dosing interval at steady state (Cmax.ss), observed plasma concentration before dosing or at the end of a dosing interval (Ctrough; only for canagliflozin), tmax during a dosing interval at steady state (tmax.ss), and AUC during a dosing interval at steady state (AUCτ.ss). Additionally, M/P ratio (corrected for the differences in molecular weights) for Cmax.ss, AUCτ.ss, Ae during a collection interval (Aet1-t2), %Ae dose, and CLR were calculated for study 2.
A mixed-effects model was fitted to the log-transformed data of AUC or Cmax as dependent variables, treatment (with or without coadministration of the other drug) as a fixed effect, and participant as a random effect. The estimated least-square means and intra-participant variability from the mixed-effect model was used to construct 90% confidence interval (CI) for the difference in means of AUC or Cmax on the log-scale between the two treatments. The limits of the CIs were retransformed using antilogarithms to obtain the 90% CI for the ratio of the geometric mean AUC or Cmax.

[10] = in vivo; remark: listed apart in the source
Description: as §2, §3, §4

P-gp = test system: P-gp; set-up: method as in unpublished data; conditions: MDR1-expressing MDCK cells; ref unpublished data; cited from earlier work
P-glycoprotein (P-gp) = test system: P-glycoprotein (P-gp); set-up: method as in earlier work; conditions: in vitro experiments; cited from earlier work
[11] = test system: multidrug resistance protein 2 (MRP2); set-up: method as in earlier work; conditions: in vitro experiments; cited from earlier work
OATP1B1 = conditions: in vitro studies; no reference given; cited from earlier work
OAT1 = conditions: in vitro studies; no reference given; cited from earlier work
OAT3 = conditions: no reference given; cited from earlier work
[12] = set-up: method as in PMID 23670707; conditions: cited from earlier work
[13] = set-up: method as in PMID 22226086, PMID 22492586; conditions: canagliflozin 300 mg b.i.d., cited from earlier work
[14] = canagliflozin + probenecid (test), geometric mean, n = 11
[15] = canagliflozin + probenecid vs canagliflozin alone
[16] = canagliflozin + probenecid, arithmetic mean (SD)
[17] = canagliflozin alone (reference), geometric mean, n = 11
[18] = canagliflozin alone, arithmetic mean (SD)
[19] = probenecid coadministration vs canagliflozin alone
[20] = canagliflozin and probenecid coadministration, 1/12

Q: What does the source list for `CO[C@H]1/C=C/O[C@@]2(C)Oc3c(C)c(O)c4c(O)c(c(/C=N/N5CCN(C)CC5)c(O)c4c3C2=O)NC(=O)/C(C)=C\C=C\[C@H](C)[C@H](O)[C@@H](C)[C@@H](O)[C@@H](C)[C@H](OC(C)=O)[C@@H]1C` [rifampin]?
A: reduction of rifampin absorption [1]: 30%; participants with TEAEs [2]: 50%; increase in plasma rifampin concentration at 2 hours [3]: 24%

Q: Which “AUC∞.ss” value ([4]; canagliflozin 300 mg q.d. + probenecid 500 mg b.i.d. (day 17), arithmetic mean (SD), n = 12) does the source give for Canagliflozin here?
A: 26,225 (5261) ng×h/mL

Q: And the “AUC∞.ss” value ([4]; canagliflozin 300 mg q.d. alone (day 14), arithmetic mean (SD), n = 12)?
A: 21,861 (4290) ng×h/mL

Q: And the “trough plasma concentration, mean (SD)” value ([4]; day 13)?
A: 381 (110) ng/mL

Q: What about the “trough plasma concentration, mean (SD)” value ([4]; day 14) of the same molecule?
A: 366 (117) ng/mL

Q: And the “trough plasma concentration, mean (SD)” value ([4]; day 15)?
A: 358 (110) ng/mL

Q: And the “AUC∞.ss” value [4, 14]?
A: 26,011.71 ng×h/mL

Q: What about the Cmax.ss [4, 14] of the same molecule?
A: 3,008.66 ng/mL

Q: What about the “AUCτ.ss, estimated ratio (test/reference) of geometric means (90% CI)” value [4, 15] of the same molecule?
A: 120.74 (116.37; 125.27) %

Q: What about the “AUC∞.ss, estimated ratio (test/reference) of geometric means (90% CI)” value [4, 15] of the same molecule?
A: 120.74 (116.37; 125.27) %

Q: What about the “Cmax.ss, estimated ratio (test/reference) of geometric means (90% CI)” value [4, 15] of the same molecule?
A: 113.37 (100.37; 128.06) %

Q: And the “CLR (renal clearance, Ae24/AUC24)” value [4, 16]?
A: 0.0569 (0.00944) L/h

Q: And the “% Ae (dose): cumulative amount excreted into the urine” value [4, 16]?
A: 0.495 (0.136) % dose

Q: What about the tmax.ss ([4]; canagliflozin + probenecid) of the same molecule?
A: 1.67 (1.42 – 5.92) h

Q: And the “AUC∞.ss” value [4, 17]?
A: 21,543.95 ng×h/mL

Q: What about the Cmax.ss [4, 17] of the same molecule?
A: 2,653.85 ng/mL

Q: What about the “CLR (renal clearance, Ae24/AUC24)” value [4, 18] of the same molecule?
A: 0.0868 (0.0297) L/h

Q: And the “% Ae (dose): cumulative amount excreted into the urine” value [4, 18]?
A: 0.609 (0.217) % dose

Q: What about the tmax.ss ([4]; canagliflozin alone) of the same molecule?
A: 1.92 (1.42– 3.92) h

Q: And the Cmax.ss ([4]; plasma, canagliflozin 300 mg q.d. + probenecid 500 mg b.i.d. (day 17), arithmetic mean (SD), n = 12)?
A: 3,105 (680) ng/mL

Q: What about the Cmax.ss ([4]; plasma, canagliflozin 300 mg q.d. alone (day 14), arithmetic mean (SD), n = 12) of the same molecule?
A: 2,699 (814) ng/mL

Q: And the “decrease in mean CLR” value [4, 19]?
A: ~ 34%

Q: What about the “increase in AUCτ.ss (systemic exposure)” value [4, 19] of the same molecule?
A: 21%

Q: And the “increase in Cmax.ss” value [4, 19]?
A: 13% and ~ 13%

Q: What about the participants with headache ([5]; canagliflozin alone, 2/14) of the same molecule?
A: 14.3%

Q: What about the “participants with ≥ 1 TEAE” value ([5]; canagliflozin alone, 4/14) of the same molecule?
A: 28.6%

Q: And the “participants with abdominal discomfort” value [5, 20]?
A: 8.3%

Q: What about the participants with diarrhea [5, 20] of the same molecule?
A: 8.3%

Q: And the participants with headache [5, 20]?
A: 8.3%

Q: And the “participants with muscle twitching” value [5, 20]?
A: 8.3%

Q: And the “participants with musculoskeletal pain” value [5, 20]?
A: 8.3%

Q: And the participants with pruritis [5, 20]?
A: 8.3%

Q: And the “participants with urethral pain” value [5, 20]?
A: 8.3%

Q: And the “participants with ≥ 1 TEAE” value ([5]; canagliflozin and probenecid coadministration, 5/12)?
A: 41.7%

Q: What about the participants with diarrhea ([6]; canagliflozin alone, 2/18) of the same molecule?
A: 11.1%

Q: And the “participants with oropharyngeal pain” value ([6]; canagliflozin alone, 2/18)?
A: 11.1%

Q: What about the “participants reporting TEAEs” value ([6]; canagliflozin alone, 6/18) of the same molecule?
A: 33.3%

Q: What about the participants with flushing ([6]; canagliflozin and cyclosporine A coadministration, 15/18) of the same molecule?
A: 83.3%

Q: And the “participants reporting TEAEs” value ([6]; canagliflozin and cyclosporine A coadministration, 17/18)?
A: 94.4%

Q: What about the “changes in clinical laboratory values, vital signs, physical examinations, or ECGs” value ([7]; any of the three studies) of the same molecule?
A: No consistent, clinically relevant changes

Q: And the “deaths, serious TEAEs, or discontinuations due to TEAEs” value ([7]; any of the three studies)?
A: No deaths, serious TEAEs, or discontinuations due to TEAEs

Q: And the tolerability ([7]; canagliflozin 300 mg coadministered with rifampin, probenecid, and cyclosporine A, healthy participants)?
A: generally well-tolerated

Q: And the “AUC∞” value ([8]; human)?
A: 20,938.95 ng×h/mL

Q: And the “CLR (renal clearance, Ae0–72/AUC0–72h)” value ([8]; human)?
A: 0.0849 (0.0318) L/h

Q: What about the Cmax ([8]; human) of the same molecule?
A: 2,358.29 ng/mL

Q: And the t1/2 ([8]; human)?
A: 12.9 (2.42) h

Q: And the tmax ([8]; human)?
A: 2.00 (1.00 – 4.00) h

Q: And the “AUC∞” value ([8]; human, 300 mg)?
A: 21,695 (6151) ng×h/mL

Q: What about the Cmax ([8]; human, 300 mg) of the same molecule?
A: 2,474 (805) ng/mL

Q: And the “Ae (% dose): cumulative amount excreted into the urine” value [8]?
A: 0.578 (0.180) % dose

Q: And the AUCτ.ss [9]?
A: 22,243.50 ng×h/mL

Q: What about the Cmax.ss [9] of the same molecule?
A: 2,864.03 ng/mL

Q: And the tmax.ss [9]?
A: 2.00 (1.00 – 3.00) h

Q: And the AUCτ.ss ([9]; 300 mg)?
A: 22,158 (4203) ng×h/mL

Q: What about the Cmax.ss ([9]; 300 mg) of the same molecule?
A: 2,887 (735) ng/mL

Q: What about the “participants with TEAEs” value [10] of the same molecule?
A: 21.4%

Q: What about the “participants with abdominal discomfort” value [10] of the same molecule?
A: 7.1%

Q: What about the participants with polyuria [10] of the same molecule?
A: 7.1%

Q: What about the participants with thirst [10] of the same molecule?
A: 7.1%

Q: What about the P-gp substrate status (P-gp) of the same molecule?
A: P-gp substrate

Q: What about the basal-to-apical/apical-to-basal efflux ratio (P-gp) of the same molecule?
A: 2.0

Q: What about the “substrate of P-glycoprotein (P-gp)” value (P-glycoprotein (P-gp)) of the same molecule?
A: substrate

Q: And the “substrate of MRP2” value [11]?
A: substrate

Q: And the “substrate of OATP1B1” value (OATP1B1)?
A: not a substrate

Q: And the “substrate of OAT1” value (OAT1)?
A: not a substrate

Q: What about the “substrate of OAT3” value (OAT3) of the same molecule?
A: not a substrate

Q: What about the “canagliflozin dose excreted in urine as unchanged canagliflozin” value [12] of the same molecule?
A: less than 1%

Q: And the tolerability ([13]; 2-week multiple-dose study and 12-week dose-ranging study in T2DM)?
A: well-tolerated

Q: What about the “plasma AUCτ.ss higher than with the 300 mg q.d. dose” value [13] of the same molecule?
A: 93%

Q: And the “plasma Cmax.ss higher than with the 300 mg q.d. dose” value [13]?
A: 32%
